The source of these data is publication PMC7179685, “Iminosugars With Endoplasmic Reticulum α-Glucosidase Inhibitor Activity Inhibit ZIKV Replication and Reverse Cytopathogenicity in vitro” (Frontiers in Microbiology, 2020).

Data set [1] has as its system Vero cells. The data set is described as follows: Cytotoxicity, MTS cell viability assay in Vero cells. The format is cell-based, African green monkey. The following applies: 72 h post treatment; for metabolic activity (cytotoxicity, MTS): 1000 μM; for metabolic activity compared to vehicle control (cytotoxicity, MTS): 0.01 to 100 μM. The protocol:
(§1) A cell viability assay was used to evaluate both the cytotoxicity and antiviral abilities of the iminosugars with appropriate controls as previously described ([Fletcher et al., 2000]) using the CellTiter 96® AQueous One Solution Cell Proliferation Assay (MTS, Promega, Madison, WI, United States) following the manufacturer’s instructions. At 60–70% confluence, Vero cells and CHME3 cells were pretreated with iminosugars for 2 h and then infected with ZIKV according to the plate layout shown in Supplementary Figure S1. Four biological replicates were used to assess cytotoxicity, and six replicates were used to assess the antiviral ability of each iminosugar with concentrations ranging from 0.01 to 1000 μM or vehicle (sterile nuclease-free water). Cells treated with iminosugars or vehicle control were infected with ZIKV strain PRVABC59, IBH30656 or MEX 2-81 at a multiplicity of infection (MOI) of 1 in infection medium consisting of DMEM supplemented with 5% FBS and 1% antibiotic/antimycotic solution. The CHME3 infection medium was additionally supplemented with 0.1% non-essential amino acids (NEAA). At 72 h post-infection (hpi), MTS solution was added to the wells, and after 2 h, the optical density was measured at 490 nm using a microplate reader (ELx800; BioTek, Winooski, VT, United States). Previous studies have shown that ER α-glucosidase inhibitor, Celgosivir prevents DENV secretion in primary human macrophages with an EC50 of 5 μM and has CC50 greater than 1000 μM in MBDK cells ([Whitby et al., 2004]; [Sung et al., 2016]).

Data set [2] has as its system CHME3 cells. The data set is described as follows: Cytotoxicity, MTS cell viability assay in CHME3 cells. The format is cell-based, Human. The settings on record: 72 h post treatment; for metabolic activity (cytotoxicity, MTS): 1000 μM; for metabolic activity compared to vehicle control (cytotoxicity, MTS): 0.01 to 100 μM. The protocol: as §1
The subject of data set [3] is ZIKV PRVABC59. Nature of the data set: Virus yield reduction assay (qRT-PCR and TCID50) in Vero cells. The data set is classed as cell-based, Zika virus. The settings on record: 1 μM, 48 hpi; for PRVABC59 ZIKV RNA in supernatant compared with vehicle control (qRT-PCR): MOI 0.5 and MOI 5, p ≤ 0.0318; for infectious PRVABC59 ZIKV titers (TCID50): MOI 0.5 and MOI 5, p ≤ 0.0433. The protocol:
(§2) Zika virus yield reduction following treatment with iminosugars was assessed by measuring the NS1 gene by a previously described quantitative reverse transcription-polymerase chain reaction (qRT-PCR) and infectious virus titration in Vero cells ([Reed and Muench, 1938]; [Goebel et al., 2016]). Vero and CHME3 cells pre-treated 1 μM of castanospermine, celgosivir or DNJ for 2 h and then were infected with PRVABC59 either at MOI 0.5 or 5 in infection medium. After 2 h of incubation with the virus, medium from cells was removed, cells were washed with phosphate buffered saline, and fresh infection medium containing 1 μM of castanospermine, celgosivir or DNJ was added to the wells. At 48 and 72 hpi, culture supernatants were harvested and stored at −80°C until use for viral RNA extraction. Viral RNA was extracted from 50 μl of sample using the MagMAX-96 Viral RNA Isolation Kit (Applied Biosystems, Foster City, CA, United States) on a MagMAX Express-96 Deep Well Magnetic Particle Processor (Applied Biosystems). The amount of ZIKV genomic RNA was measured by qRT-PCR using SuperScript® III Platinum One-Step qRT-PCR Kit on a 7500 Fast Real-Time PCR System (Applied Biosystems). The primers (F: 5′-[…]-3′, R: 5′-[…]-3′) and probe sequence (5′- FAM-TGCCCAACA/ZEN/CAAGGTGAAGCC TACCT-BHQ) were purchased from Integrated DNA Technologies (IDT; Coralville, IA, United States), and the qRT-PCR cycling conditions included an initial cDNA synthesis for 30 min at 50°C, followed by 2 min at 95°C and 45 cycles of 2-step cycling at 95°C for 15 s, then 55°C for 30 s ([Goebel et al., 2016]). The ZIKV copy numbers were quantified using a standard curve generated with serial dilutions of positive control ZIKV RNA standards derived from ZIKV with known TCID50 value. Cell culture supernatants were titrated for the infectious virus in Vero cells, and titer was expressed as TCID50 calculated using the Reed-Muench method ([Reed and Muench, 1938]).

In data set [4] the test system is ZIKV PRVABC59. Nature of the data set: Virus yield reduction assay (qRT-PCR and TCID50) in CHME3 cells. The format is cell-based, Zika virus. The settings on record: 1 μM, 48 hpi. The protocol:
as §2

Data set [5] concerns ZIKV strain PRVABC59. The data set is described as follows: Antiviral screening assay (MTS cell viability after infection) in Vero cells. The format is cell-based, Zika virus. The following applies: for ZIKV-induced cell death (MTS): Vero cells, PRVABC59, MOI 1, 72 hpi. As for the experimental part:
as §1

In data set [6] the test system is ZIKV strain PRVABC59. Nature of the data set: Antiviral screening assay (MTS cell viability after infection) in CHME3 cells. The settings on record: for ZIKV-induced cell death (MTS): PRVABC59, MOI 1, 72 hpi. The data set is classed as cell-based, Zika virus. The protocol:
as §1

In data set [7] the test system is ZIKV. Set-up: method as in Ma et al., 2018. The settings on record: ref Ma et al., 2018, cited from earlier work.

Where a name gives a salt, the structure may show the parent alone.

Turning to `O[C@H]1[C@H](O)[C@@H](O)CN2CC[C@H](O)[C@H]12` [castanospermine], the “metabolic activity (cytotoxicity, MTS)” value in data set [1] and in data set [2] was “decrease in metabolic activity” in each case. Also, the “metabolic activity compared to vehicle control (cytotoxicity, MTS)” value in data set [1] and in data set [2] was “No reduction in metabolic activity” each time. In data set [3], the “PRVABC59 ZIKV RNA in supernatant compared with vehicle control (qRT-PCR)” value is on record as “Significant reductions”. Moreover, the “infectious PRVABC59 ZIKV titers (TCID50)” value in data set [3] was “statistically significant reduction”; in data set [4] (MOI 0.5), “not statistically significant”; in data set [4] (MOI 5, p ≤ 0.0433) it was “statistically significant reduction”. Besides, the “PRVABC59 ZIKV RNA in supernatant, reduction vs control cells (qRT-PCR)” value in data set [4] (MOI 5) is “not significant”. The “ZIKV-induced cell death (MTS)” value in data set [5] and in data set [6] (CHME3 cells) was “reduce ZIKV-induced cell death” in each case. In addition, the “cell viability following ZIKV infection” value in data set [6] (CHME3 cells, MOI 1, 10 μM required) was determined as 90%.

For the compound `CC(C)(C)NC(=O)N(CCCCCCN1C[C@H](O)[C@@H](O)[C@H](O)[C@H]1CO)C1CCCCC1` [IHVR-19029], the “ZIKV RNA production” value in data set [7] (HEK293 embryonic kidney cells, MOI 0.1, 0.1 μM, the lowest concentration tested) is “decreased ZIKV RNA production”. For the same compound, the ZIKV viral replication entry in data set [7] (embryonic kidney cells) is “reduced”.

Take `OC[C@H]1NC[C@H](O)[C@@H](O)[C@@H]1O` [DNJ, 1-deoxynojirimycin hydrochloride]: the “metabolic activity (cytotoxicity, MTS)” value in data set [1] and in data set [2] was “decrease in metabolic activity” in each case. The “metabolic activity compared to vehicle control (cytotoxicity, MTS)” value in data set [1] and in data set [2] was “No reduction in metabolic activity” each time. For the same compound, in data set [3], the “PRVABC59 ZIKV RNA in supernatant compared with vehicle control (qRT-PCR)” value is listed as “Significant reductions”. In addition, the “infectious PRVABC59 ZIKV titers (TCID50)” value in data set [3] is recorded as “statistically significant reduction”; in data set [4] (MOI 0.5), “statistically significant reduction”; in data set [4] (MOI 5, p ≤ 0.0433), “statistically significant reduction”. The “ZIKV-induced cell death (MTS)” value in data set [5] and in data set [6] (CHME3 cells) was “reduce ZIKV-induced cell death” each time. Besides, the viability at 0.01 µM in data set [5] (Zika virus, Vero, read-out: cell viability following ZIKV infection) was greater than 90%; in data set [6] (Zika virus, read-out: cell viability following ZIKV infection) it was greater than 90%.
